The values below come from patent US20080254042A1, “Novel Use of Prrp and Receptor Thereof” (Takeda Pharmaceutical Company Limited, priority 2004, published 2008).

For data set [1], the system named is PrRP knockout mice and wild-type mice. Put plainly: Survival of PrRP knockout and wild-type mice after MPTP administration. In kind it is in vivo, mouse. Particulars: MPTP i.p. every 2 hours 4 times at 20 μg/kg, five days after administration. The protocol: MPTP (methyl-phenyl-tetrahydropyridine) known to produce animal models of Parkinson's disease was intraperitoneally administered to PrRP knockout mice and wild-type mice every 2 hours 4 times at the dose of […]. Five days after the administration, 11 out of 21 wild-type mice survived with a survival rate of 52%, whereas 10 out of 10 PrRP knockout mice survived, meaning that there was no dead animal and the survival rate was 100%.

Data set [2] deals with nigral dopamine cells. Nature of the data set: Number of tyrosine hydroxylase positive (dopamine) cells in the substantia nigra after MPTP, PrRP knockout vs wild-type mice. The conditions noted are these: FIG. 1. It counts as in vivo, mouse. The source says:
It is known that MPTP (methyl-phenyl-tetrahydropyridine) causes degenerative loss of nigral dopamine cells to induce Parkinson's disease. Thus, the brains were excised from PrRP knockout mice and wild-type mice, to which MPTP or saline for control was given as in EXAMPLE 1, and then immersed and fixed in a 0.07M phosphate buffer (pH 7.4) containing 5% acrolein (Tokyo Chemical Industry). The brains were then immersed in 30% sucrose-containing phosphate buffered saline (PBS) for more than 2 days. The free-floating technique was used for immunohistochemistry. A frozen frontal section in 40 μm thickness of the brain was prepared using a cryomicrotome. Next, the section was soaked in and washed with PBS for water immersion, then treated with 0.5% sodium metaperiodate-containing PBS (20 minutes) to inactivate the endogenous peroxidase activity, and the aldehyde group was reduced by treatment with 1% sodium borohydride-containing PBS (20 minutes). In addition, non-specific reactions were blocked by treatment with 1% normal horse serum and 0.4% Triton X-100-containing BPS (TNBS) (an hour). […] The number of tyrosine hydroxylase positive cells, which are dopamine cells in the substantia nigra, was counted under an optical microscope.

The nature of data set [3]: Motor activity assessed with a rotarod after MPTP, PrRP knockout vs wild-type mice. It counts as in vivo, mouse. Particulars: FIG. 2. The protocol: In order to examine the relation of Parkinson's disease to PrRP, decrement of motor activities known as symptoms of Parkinson's disease induced by administration of MPTP was compared between PrRP knockout mice and wild-type mice. The motor activity of each mouse was assessed with a rotarod. […] Turning to the PrRP knockout mice, there was no difference between the group administered with MPTP and the group administered with saline for control, and the motor activity was normal (FIG. 2). These phenomena reveal that onset of Parkinson's disease induced by MPTP was suppressed in the PrRP knockout mice.
On the technique in general: In the rotarod test animals must keep their balance on a rotating rod.

Data set [4] can be described thus: Catecholamine level in the striatum after MPTP, PrRP knockout vs wild-type mice. In kind it is in vivo, mouse. The conditions noted are these: seven days after final administration, FIG. 3. The method, then: MPTP or saline for control was administered to PrRP knockout mice and wild-type mice in a manner similar to EXAMPLE 1. Seven days after the final administration, the striatal sites were immediately excised from the brains, frozen in liquid nitrogen and then stored at −80° C. Catecholamines such as Dopamine (DA), DOPAK, HVA, etc. were measured as follows. First, the excised corpus striata were homogenized in 0.2M perchloric acid containing 100 ng/mL isoproterenol (Sigma), centrifuged at 15,000 g for 20 minutes at 0° C., and filtered through a 0.22 μm filter. The final solution, 10 μL, was separated under the conditions at flow rate of 0.5 mL/min in 83% 0.1 M acetic acid-citrate buffer (pH 3.5)/17% methanol solution containing 190 mg/L SDS and 5 mg/L EDTA-2Na through EICOMPAK SC-50DS column (3.0 mm×150 mm, EICOM), and determined by electrochemical detection.

For data set [5], the system named is striatal dopamine nerve fibers. Nature of the data set: TH-positive fiber density in the striatum, MPTP after intraventricular antibody. The conditions noted are these: C57BL/6J mice given normal mouse IgG i.c.v., then MPTP 20 mg/kg i.p. 4 times every 2 hours; P<0.05; FIG. 5.
Text: (§1) Male C57BL/6J mouse (CLEA Japan) of 14 weeks old was fixed on a brain stereotaxic apparatus under anesthesia with pentobarbital (Dainippon Pharmaceutical) and the skull surface was exposed. After the skull was dried with a drier, the coordinates of bregma were located to determine the coordinates of the left lateral ventricle (AP: −0.2 mm, lateral: +1.0 mm, depth: +2.5 mm from bregma). After a burr hole was made with a dental drill on the skull across the bregma from the location of the left lateral ventricle, anchor screws (EICOM) were implanted to fix a dental cement (GC Corp., Unifast II). A hole was made with a dental drill (Urawa Corp., Model: UC100) for guide cannulation to vertically insert into the skull on the left lateral ventricle, and a guide cannula (EICOM) was eased down toward the ventricle. After leakage of cerebrospinal fluids was confirmed, the guide cannula was fixed on the coordinates determined. The dental cement was used for fixation and applied until the anchor screws were embedded. After it was confirmed that the cement was dried, the mouse was released from the stereotaxic apparatus. […]
(§2) The antibody solution was diluted in Centriprep (Millipore). Absorbance (280 nm) was measured to determine the antibody concentration, and the antibody was diluted in aseptic PBS (−) to 9.97 mg/mL. […]
Data set [6] has as its system nigral dopamine cells. Put plainly: Number of TH-positive cells in the substantia nigra pars compacta, MPTP after intraventricular antibody. Particulars: C57BL/6J mice given normal mouse IgG i.c.v., then MPTP 20 mg/kg i.p. 4 times every 2 hours; P<0.001; FIG. 4.
Text: as §1, §2

With `CN1CC=C(c2ccccc2)CC1` [MPTP], the survival rate turned out to be 100% in data set [1] (PrRP knockout mice, 10 out of 10 survived) and 52% in data set [1] (wild-type mice, 11 out of 21 survived). Besides, the “decrease in number of tyrosine hydroxylase positive cells in the substantia nigra, MPTP group vs saline group” value is on record as “about 10%” with nigral dopamine cells [2] (PrRP knockout mice, no significant change) and “about 60%” in the data set on nigral dopamine cells [2] (wild-type mice, significant). Moreover, the “motor activity (rotarod), MPTP group vs saline group” value was “no difference” in data set [3] (PrRP knockout mice) and “markedly decreased” in data set [3] (wild-type mice). For the same molecule, the “striatal dopamine (DA), DOPAC and HVA levels after MPTP” value was “the degree of the decrease was smaller” in data set [4] (PrRP knockout mice) and “decreased markedly” in data set [4] (wild-type mice). Besides, the “striatal dopamine nerve fibers (image analysis), vs saline group” value in data set [5] is “significant decrease”. Further, the “dopamine cells in the substantia nigra pars compacta, vs saline group” value in the data set on nigral dopamine cells [6] is recorded as “significant decrease”.
